Experimental data published in US8916604B2, “Compositions and methods for epigenetic modification of nucleic acid sequences” (Rutgers, The State University of New Jersey, priority 2011, dated 2014).

What was measured:
NQO1 = assay: Western blot of TRAMP dorso-lateral prostate tissues; assay type: in vivo, mouse; conditions: D-G1 and D-G2; undetectable in control
Protocol: (§1) The TRAMP C1 cells or dorso-lateral prostate tissues collected from treated and control groups were pooled and homogenized with RIPA buffer (Cell Signaling Technology, Danvers, Mass., U.S.A.) and 10 μg/ml protease inhibitor cocktail (EMD Chemicals, Philadelphia, Pa., U.S.A.). Protein (20 μg) was loaded onto 4-15% SDS-PAGE (Bio-Rad Laboratories, Hercules, Calif., U.S.A.). After separation by SDS-PAGE, the protein was transferred onto nitrocellulose membrane (Millipore Corp., Billerica, Mass., U.S.A.), and then was blocked in 5% bovine serum albumin (BSA) (Fisher Scientific, Fair Law, J. U.S.A.) in tris buffer saline tween-20 (TBST) solution for 1 h. […] After washing min 4 times with TBST solution, the immunoreactive bands were determined by adding SuperSignal West Femto mix (1:1 mix of stable peroxide buffer and luminol/enhancer solution (Thermo Scientific, Rockford, Ill., U.S.A.) to detect immunoreactive bands. The bands were visualized and quantified by BioRad ChemiDoc XRS system (Hercules, Calif., U.S.A.). The primary antibodies used were β-actin, Nrf2, NQO1 (Santa Cruz Biotechnology, Santa Cruz, Calif., U.S.A.), HDAC1, HDAC2, HDAC3, HDAC4 (Cell Signaling Technology Inc., Danvers Mass., U.S.A.), HDAC8 (Proteintech Group Inc., Chicago, Ill., U.S.A.) and DNMT1, DNMT3a, DNMT3b (Imgenex, San Diego, Calif., U.S.A.). […]

Nrf2 = assay: as above; assay type: in vivo, mouse; conditions: D-G1 and D-G2; undetectable in control
Protocol: as §1

[1] = tested on: first 5 CpGs of Nrf2 gene promoter; assay: Methylated DNA immunoprecipitation (MeDIP) in TRAMP C1 cells; assay type: cell-based, mouse
Protocol: The DIM used in the study contains approximately 98% of DIM purchased from Sigma-Aldrich t St. Louis, Mo., USA), TRAMP C1 cells (provided by Dr. Barbara Foster, Department of Pharmacology and Therapeutics, Roswell Park Cancer institute, Buffalo. NY), originally derived from TRAMP prostate tumor, were cultured in Dulbecco's Modified Eagle's Medium (Invitrogen Corp., Carlsbad, Calif. U.S.A.) supplemented with 10% (V/V) fetal bovine serum (FBS) (Invitrogen Corp., Grand Island, N.Y., U.S.A.), penicillin 100 U/ml, and streptomycin 100 μg/ml (Invitrogen Corp., Grand Island, N.Y., U.S.A.), Cells were maintained in a humidified incubator with 5% CO2 at 37° C. Cells were seeded in 10 cm plates for 24 h and then treated with 0.1% DMSO (control) or different concentrations of DIM in 1% FBS containing medium for 5 days. The medium was changed every 2 days (20),
Genomic DNA (8 μg each) extracted from control and DIM treated TRAMP C1 cells were used for the MeDIP analysis, analogous to other chromatin immuno-precipitation (ChIP) analysis. The DNAs were adjusted to 150 μl using TE buffer in DNA. LoBind tubes. DNAs were fragmented by sonication on ice-water using a Bioruptor sonicator (Diagnode Inc., Sparta, N.J., U.S.A.) and the size of sheared DNA fragment (around 300 to 500 bp) was checked by gel electrophoresis. […]

c1ccc2c(Cc3c[nH]c4ccccc34)c[nH]c2c1 [DIM, 3,3′-diindolylmethane]
NQO1 protein expression (NQO1): induced | Nrf2 protein expression (Nrf2): induced | methylated DNA bound by anti-mecyt antibody [1]: reduced
